Measurements: paper PMC8396575, ““Molecular Masks” for ACE2 to Effectively and Safely Block SARS-CoV-2 Virus Entry” (International Journal of Molecular Sciences, 2021)
Bridge positions count the residues as written; N and C are the ends. Square brackets hold non-standard residues; d marks the D form. Peptide text beside a SMILES is read from it. I, II: the chains in the order shown. N(4-MeOBn)Gly = COc1ccc(CNCC(=O)O)cc1; N((CH2)3OiPr)Gly = CC(C)OCCCNCC(=O)O; Nrpe = C[C@@H](NCC(=O)O)c1ccccc1; NAllylGly = C=CCNCC(=O)O; Nleu = CC(C)CNCC(=O)O; Nme = COCCNCC(=O)O

Columns and labels:
Caco-2 cells = assay: WST-1 cell viability assay, Caco-2; assay type: cell-based, human; details: WST-1, 48 h, concentrations tested up to 20 µM; n = 3–5/group
From the text: (§1) We assessed whether ACE2P1D1 and ACE2P2D1 are toxic to the cells. We seeded and treated increasing concentrations of ACE2P1D1 and ACE2P2D1 on NCI-H1299, Caco-2, and MCF-7 cells. The standard WST-1 assay was used to measure the cell viability. As shown in Figure 5c–e, treatment with both compounds had no effects on cell viability in NCI-H1299, MCF-7, and Caco-2 cells.

[1] = tested on: ACE2 cell surface expression in Caco-2 cells; assay: Flow cytometry, ACE2 cell surface expression, Caco-2; assay type: cell-based, human; details: 10 µM, 48 h
Experimental: To evaluate the impact of compounds to ACE2 upon binding in cell lines, MCF-7, NCI-H1299, and Caco-2 cell cultures reaching 70% confluences were incubated with 10 μM ACE2P1D1 and ACE2P2D1 for 48 h and then harvested using trypsin. Briefly, cells were centrifuged and washed with FACS buffer and then fixed by methanol on ice. Cells were suspended with a primary antibody-staining mixture using 0.5 μg (Human/Mouse/Rat/Hamster ACE-2 Antibody, R&D Systems, Inc., Cat# AF933, Minneapolis, MN, USA) per sample. Samples were incubated at room temperature for 1 h followed by washing and secondary antibody (mouse anti-goat IgG-FITC, Santa Cruz, Cat# sc-2356, Dallas, TX, USA) staining. Samples were incubated for another hour and washed before being analyzed using Accuri™ C6 (BD Biosciences, Franklin Lakes, NJ, USA). Data analysis was conducted by FlowJo™ v10 software (v10.5.2, FlowJo. LLC, Ashland, OR, USA).

MCF-7 cells = assay: WST-1 cell viability assay, MCF-7; assay type: cell-based, human; details: WST-1, 48 h, concentrations tested up to 20 µM; n = 3–5/group
From the text: as §1

NCI-H1299 cells = assay: WST-1 cell viability assay, NCI-H1299; assay type: cell-based, human; details: WST-1, 48 h, concentrations tested up to 20 µM; n = 3–5/group
From the text: as §1

[2] = target: T1, recombinant human angiotensin-converting enzyme 2 (ACE2) (His-tag) (Homo sapiens, UniProt Q9BYF1); assay: ELISA-like quantitative ACE2-peptoid binding assay
T1 construct: purchased RayBiotech 230-30165-100
T1 sequence (Q9BYF1 18-805): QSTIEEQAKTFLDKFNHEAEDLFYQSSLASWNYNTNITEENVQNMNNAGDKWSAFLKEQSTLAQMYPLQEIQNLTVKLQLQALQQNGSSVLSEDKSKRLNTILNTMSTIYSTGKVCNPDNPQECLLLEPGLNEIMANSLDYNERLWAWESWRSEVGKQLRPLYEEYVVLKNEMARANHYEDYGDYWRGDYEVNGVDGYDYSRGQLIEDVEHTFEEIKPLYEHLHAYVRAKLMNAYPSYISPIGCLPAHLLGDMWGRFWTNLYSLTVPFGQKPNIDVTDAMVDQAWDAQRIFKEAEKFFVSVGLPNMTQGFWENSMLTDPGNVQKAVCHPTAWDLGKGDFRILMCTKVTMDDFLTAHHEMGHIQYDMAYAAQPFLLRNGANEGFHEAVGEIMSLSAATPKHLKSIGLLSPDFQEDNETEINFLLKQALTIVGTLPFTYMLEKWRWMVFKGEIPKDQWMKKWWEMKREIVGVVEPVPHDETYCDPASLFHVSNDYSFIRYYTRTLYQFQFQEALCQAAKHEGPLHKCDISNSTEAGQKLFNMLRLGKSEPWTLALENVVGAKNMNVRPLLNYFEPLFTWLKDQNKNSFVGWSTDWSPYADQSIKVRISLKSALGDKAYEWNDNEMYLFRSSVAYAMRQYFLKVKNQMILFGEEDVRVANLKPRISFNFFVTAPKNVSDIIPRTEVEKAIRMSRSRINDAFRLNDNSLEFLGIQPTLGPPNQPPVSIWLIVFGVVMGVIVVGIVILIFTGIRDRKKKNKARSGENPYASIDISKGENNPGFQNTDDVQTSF
Experimental: We first validated the OBTC screening results by resynthesizing ACE2P1 and ACE2P2 on tentagel beads and incubated them with red cells (ACE2 positive) and green cells (ACE2 negative) separately as well as 1:1 mixture of these cells. […] Next, we incubated recombinant ACE2 protein with the ACE2P1 or ACE2P2 conjugated tentagel beads and performed in vitro pull-down assay. […] To confirm a direct interaction between the peptoids and ACE2, we performed a thermal shift assay using recombinant ACE2 protein. The Applied Biosystems™ Protein Thermal Shift™ assay measures protein thermal stability using a fluorescent protein-binding dye. […] The protein is mixed with the dye and heated; as it unfolds or melts, hydrophobic parts of the protein are exposed and bind to the dye, resulting in fluorescence emission detected by the qPCR system. Binding of a ligand to the protein changes the stability of the protein, resulting in a change in fluorescence intensity. […] Finally, we performed a previously published ELISA-like quantitative binding assay to quantify the peptoid-ACE2 binding event. The recombinant His-tagged ACE2 protein was attached to the Nickel-coated 96-well plate. […] After washing, the remaining compounds were probed with streptavidin-HRP system followed by detecting luminescence signals using a spectrophotometer. […]

[3] = tested on: ACE2 activity in Caco-2 cells; assay: ACE2 enzyme activity in Caco-2 cells; assay type: cell-based, human; details: 40 µg cell lysate, cOmplete protease inhibitor 40 µL/mL, 10 µM captopril; fluorescence; n = 3/group
Experimental: ACE2 is an enzyme which lowers blood pressure by catalyzing the hydrolysis of angiotensin II [49]. […] To determine if ACE2P1D1 and ACE2P2D1 interfere with the normal functions of ACE2, we examined the effects of the peptoids on ACE2 enzyme activity. ACE2 enzyme activity was measured by fluorescence generated from the cleavage of the substrate Mca-YVADAPK(Dnp) by ACE2. […] We then examined the effects of ACE2P1D1 and ACE2P2D1 on ACE2 activity in cultured cells. For measuring ACE2 activity in cells, cell homogenates were used. To prevent hydrolysis of the substrate by a range of nonmetalloprotease enzymes from the cells, cOmplete™ Protease Inhibitor Cocktail (Roche/Sigma—40 µL/mL) was added to the cell homogenates. To eliminate the effects of ACE on the substrate, ACE inhibitor captopril (10 µM) was added to the assay.
ACE2 enzyme activity was determined using recombinant ACE2 protein (R&D system Inc., Cat# 933-ZN-010, Minneapolis, MN, USA) alone or in the presence of ACE2P1D1 and ACE2P2D1 in different concentrations (0.1 µM, 1 µM, and 10 µM), and Mc[…] (Dnp)-OH, Fluorogenic Peptide Substrate VI from R&D System, Inc. (Cat# ES007, Minneapolis, MN, USA). […] ACE2 enzyme activity was measured every 20 min by fluorescence plate reader (BioTek Cytation 5 cell Imaging Multi-Mode Reader, Winooski, VT, USA) with excitation at 320 nm and emission at 405 nm.

[4] = tested on: total ACE2 protein in Caco-2 cells; assay: Western blot, total ACE2, Caco-2; assay type: cell-based, human; details: various concentrations, 48 h
Experimental: Cells were lysed in RIPA buffer (1% NP-40, 0.5% sodium deoxycholate, 0.1% SDS in PBS). Complete protease inhibitor cocktail (Roche, St. Louis, MO, USA) was added to lysis buffer before use. Protein concentration was determined by Bio-Rad DC protein assay (Bio-Rad, Hercules, CA, USA). Protein samples were subjected to SDS-PAGE and transferred to nitrocellulose membrane. The membrane was blocked in 5% non-fat milk in PBST overnight and incubated with primary antibody and subsequently with appropriate horse radish peroxidase-conjugated secondary antibody. Signals of targeted proteins were detected by the Immun-Star HRP peroxide Luminol/Enhancer (Bio-Rad, Hercules, CA, USA) and recorded on ChemiDoc Touch Imaging System (Bio-Rad, Hercules, CA, USA). Anti-hACE2 (human ACE2 receptor) antibody was purchased from R&D system, Inc. (Cat# AF933, Minneapolis, MN, USA). Full western blot data are given in Supplementary Material (Figures S14–S16).

| SMILES | effect on cell viability, Caco-2 (Caco-2 cells) | cell surface expression of ACE2, Caco-2 [1] | effect on cell viability, MCF-7 (MCF-7 cells) | effect on cell viability, NCI-H1299 (NCI-H1299 cells) | Kd [2] [nM] | effect on ACE2 activity in cultured Caco-2 cells [3] | total ACE2 protein level, Caco-2 [4] |
| --- | --- | --- | --- | --- | --- | --- | --- |
| C=CCN(CC(=O)N(CC(=O)N[C@@H](CCCCN)C(=O)N[C@@H](CCSC)C(=O)NCCCC[C@H](NC(=O)[C@H](CCSC)NC(=O)[C@H](CCCCN)NC(=O)CN(C(=O)CN(CC=C)C(=O)CN(Cc1ccc(OC)cc1)C(=O)CN(C(=O)CN(CCOC)C(=O)CNCC(C)C)[C@H](C)c1ccccc1)[C@H](C)c1ccccc1)C(N)=O)[C@H](C)c1ccccc1)C(=O)CN(Cc1ccc(OC)cc1)C(=O)CN(C(=O)CN(CCOC)C(=O)CNCC(C)C)[C@H](C)c1ccccc1 [ACE2P1D1] (I: H-[Nleu][Nme][Nrpe][N(4-MeOBn)Gly][NAllylGly][Nrpe]KMK-NH2 / II: H-[Nleu][Nme][Nrpe][N(4-MeOBn)Gly][NAllylGly][Nrpe]KM; amide I:9-II:C) | had no effect on the cell viability | did not decrease the cell surface expression of ACE2 | had no effect on the cell viability | had no effect on the cell viability | 60 | had no effects on ACE2 activity | total ACE2 protein levels did not change |
| COCCN(CC(=O)N[C@@H](CCCCN)C(=O)N[C@@H](CCSC)C(=O)NCCCC[C@H](NC(=O)[C@H](CCSC)NC(=O)[C@H](CCCCN)NC(=O)CN(CCOC)C(=O)CN(CC(C)C)C(=O)CN(CC(C)C)C(=O)CN(CCCOC(C)C)C(=O)CN(Cc1ccc(OC)cc1)C(=O)CNCc1ccc(OC)cc1)C(N)=O)C(=O)CN(CC(C)C)C(=O)CN(CC(C)C)C(=O)CN(CCCOC(C)C)C(=O)CN(Cc1ccc(OC)cc1)C(=O)CNCc1ccc(OC)cc1 [ACE2P2D1] (I: H-[N(4-MeOBn)Gly][N(4-MeOBn)Gly][N((CH2)3OiPr)Gly][Nleu][Nleu][Nme]KMK-NH2 / II: H-[N(4-MeOBn)Gly][N(4-MeOBn)Gly][N((CH2)3OiPr)Gly][Nleu][Nleu][Nme]KM; amide I:9-II:C) | had no effect on the cell viability | did not decrease the cell surface expression of ACE2 | had no effect on the cell viability | had no effect on the cell viability | 110 | had no effects on ACE2 activity | total ACE2 protein levels did not change |
